Assay results reported in US5968479A, “Diagnostic marker” (Daiichi Pure Chemicals Co., Ltd., priority 1995, dated 1999).

Tests used:
[1] = Fluorescence spectra of labeling compounds; format: physicochemical
Protocol: Compound 5 (40 mg, 64 μmol) in DMF (1 ml) was added with N-hydroxysuccinic anhydride (8.8 mg, 76 μmol) and N,N'-dicyclohexylcarbodiimide (DCC, 26.4 mg, 0.128 mmol) and the mixture was allowed to react at 4° C. overnight. Ether (10 ml) was added to the reaction mixture and the resulting residue was washed three times with ether. The solid mass was dissolved in chloroform (400 μl), and the solution was added with 0.1M aqueous hydrochloric acid (200 μl) and stirred. Then, the chloroform layer was separated and washed three times with water. The chloroform solution was concentrated under reduced pressure to obtain Compound 6 as black green solid (a labeling compound of the formula (III)) (38 mg, yield 78.5%). MS (FAB) m/e=720(M^+); Fluorescence spectra: λex =769 nm, λem =820 nm (10% DMSO in water).
Compound 5 (20 mg, 32 μmol) in DMF (1 ml) was added with sodium N-hydroxysuccinic anhydride sulfonate (8.3 mg, 38 μmol) and N,N'-dicyclohexylcarbodiimide (13.2 mg, 64 μmol), and the mixture was allowed to react at 4° C. overnight and then filtered. Ether (10 ml) was added to the filtrate and the resulting residue was washed three times with ether. The solid mass was dissolved in […] (400 μl), and the solution was added with 0.1M aqueous hydrochloric acid (200 μl) and stirred. Then, the chloroform layer was separated and washed three times with water. The chloroform solution was concentrated under reduced pressure to obtain Compound 7 as black green solid (labeling compound of the formula (III), 17 mg, yield 66.4%). MS (FAB) m/e=822 (M^+ Na); Fluorescence spectra λex =769 nm, λem =820 nm (10% DMSO in water).
Compound 5 (20 mg, 32 μmol) in DMF (0.5 ml) was added with N-(2-(N'-maleimide)ethyl)piperazine dihydrochloride (PEM, 4.4 mg, 38 μmol), triethylamine (TEA, 20 μl, 0.146 mmol) and DCC (10.2 mg, 49 μmol), and the mixture was allowed to react at 4° C. overnight. Ether (10 ml) was added to the reaction mixture and the resulting residue was washed three times with ether. The solid mass was dissolved in chloroform (400 μl), and the solution was added with 0.1M aqueous hydrochloric acid (200 μl) and stirred. Then, the chloroform layer was separated and washed three times with water. The chloroform solution was concentrated under reduced pressure to obtain Compound 8 as black green solid (labeling compound of the formula (III), 20 mg, yield 70.5%). MS (FAB) m/e=814(M^+); Fluorescence spectra λex =773 nm, λem =821 nm (10% DMSO in water).
Compound 6 (20 mg, 26.4 μmol) in DMF (0.5 ml) was added with hydrazine monohydrochloride (9.0 mg, 0.131 mmol) and the mixture was allowed to react overnight. The reaction mixture was filtered and the filtrate was concentrated under reduced pressure. The residue was dissolved in chloroform (0.5 ml) and the chloroform solution was washed with water three times. The chloroform layer was concentrated under reduced pressure to obtain Compound 9 as black green solid (16 mg, yield 90.0%). MS (FAB) m/e=637(M^+); Fluorescence spectra: λex =771 nm, λem =820 nm (10% DMSO in water).
Compound 12 (30 mg, 41.8 μmol) in a 50 v/v % aqueous solution of THF (1 ml) was added with sodium N-hydroxysuccinic anhydride-sulfonate (16.8 mg, 77.4 μmol) and N,N'-dicyclohexylcarbodiimide (25.8 mg, 0.125 mmol), and the mixture was allowed to react at 4° C. overnight and then filtered. The filtrate was concentrated under reduced pressure at a temperature of 20° C. or less. The residue was added with ethyl acetate (10 ml) and the deposited crystals were further washed with ether three times. These crystals were dissolved in water (200 μl) and purified using a Sephadex LH20 column (eluent: water) to obtain Compound 13 as black green solid (labeling compound of the formula (III), 34 mg, yield 88.8%). MS (FAB) m/e=892(M^-); Fluorescence spectrum λex =771 nm, λem =822 nm (water). […]

[2] = Water solubility of labeling compounds before (zwitterion type) and after (double salt type) salt formation; format: physicochemical; details: for solubility: water, zwitterion type
Protocol: The above-obtained Compound 17 (100 mg, 0.11 mmol) was dissolved in methanol (2 ml) and the solution was added with a solution of sodium iodide (1 g, 6.7 mmol) in methanol (5 ml). The methanol solution was concentrated to a half of the volume and cooled to 4° C. overnight. The precipitated crystals were collected by filtration. The obtained green crystals were dried in a vacuum desiccator to give Compound 18 (labeling compound of the formula (V), 85 mg, yield 72%). Data of water-solubility and infrared absorption spectrum data (IR) were obtained before the formation of the salt with sodium iodide (zwitterion type) and after the salt formation. The iodide content was determined by the Schoniger method.
Indocyanine green-N-butanoic acid sulfosuccinimide ester (Compound 19) was prepared according to the method of Example 3. Compound 19 (150 mg, 0.17 mmol) was dissolved in methanol (3 ml) and the solution was added with a solution of sodium iodide (1.5 g, 10 mmol) in methanol (8 ml). The methanol was concentrated to a half of the volume and the concentrate was cooled to 4° C. overnight. The precipitated crystals were collected by filtration. The obtained green crystals were dried in a vacuum desiccator to give Compound 20 (labeling compound of the formula (V), 117 mg, yield 66%). Data of water-solubility and infrared absorption spectra data (IR) were obtained before and after the salt formation with sodium iodide. Iodine content was determined by the Schoniger method.
Indocyanine green-N-hexanoic acid sulfosuccinimide ester (Compound 21) was prepared according to the method of Example 3. Compound 21 (100 mg, 0.11 mmol) was dissolved in methanol (2 ml) and the solution was added with a solution of sodium perchlorate (0.3 g, 2.5 mmol) in methanol (20 ml). The methanol was concentrated to a quarter of the volume under reduced pressure and the concentrate was cooled to 4° C. overnight. The precipitated crystals were collected by filtration. The obtained green crystals were dried in a vacuum desiccator to give Compound 22 (labeling compound of the formula (V), 23 mg, yield 21%). Data of water-solubility and IR were obtained before and after the salt formation with sodium perchlorate.

SMILES	Fluorescence spectra λem ([1]; 10% DMSO in water)	Fluorescence spectra λex ([1]; 10% DMSO in water)	further results
CC[N+]1=C(C=CC=CC=CC=C2N(CCCCCC(=O)ON3C(=O)CCC3=O)c3ccc4ccccc4c3C2(C)C)C(C)(C)c2c1ccc1ccccc21 [Compound 6]	820 nm	769 nm	–
CC[N+]1=C(C=CC=CC=CC=C2N(CCCCCC(=O)ON3C(=O)CC(S(=O)(=O)O)C3=O)c3ccc4ccccc4c3C2(C)C)C(C)(C)c2c1ccc1ccccc21 (stereo not shown) [Compound 7]	820 nm	769 nm	–
CC[N+]1=C(C=CC=CC=CC=C2N(CCCCCC(=O)N3CCN(CCN4C(=O)C=CC4=O)CC3)c3ccc4ccccc4c3C2(C)C)C(C)(C)c2c1ccc1ccccc21 [Compound 8]	821 nm	773 nm	–
CC[N+]1=C(C=CC=CC=CC=C2N(CCCCCC(=O)NN)c3ccc4ccccc4c3C2(C)C)C(C)(C)c2c1ccc1ccccc21 [Compound 9]	820 nm	771 nm	–
CC1(C)C(=CC=CC=CC=CC2=[N+](CCCS(=O)(=O)[O-])c3ccc4ccccc4c3C2(C)C)N(CCCCCC(=O)ON2C(=O)CC(S(=O)(=O)O)C2=O)c2ccc3ccccc3c21 (stereo not shown) [Compound 13]	–	–	Fluorescence spectra λem ([1]; water): 822 nm; Fluorescence spectra λex ([1]; water): 771 nm
CC1(C)C(=CC=CC=CC=CC2=[N+](CCCCS(=O)(=O)[O-])c3ccc4ccccc4c3C2(C)C)N(CCCCCC(=O)ON2C(=O)CC(S(=O)(=O)O)C2=O)c2ccc3ccccc3c21 (stereo not shown) [Compound 17, indocyanine green-N-hexanoic acid sulfosuccinimide ester]	–	–	Fluorescence spectra λem ([1]; water): 807 nm; Fluorescence spectra λex ([1]; water): 768 nm
CC1(C)C(=CC=CC=CC=CC2=[N+](CCCCS(=O)(=O)[O-])c3ccc4ccccc4c3C2(C)C)N(CCCCCC(=O)ON2C(=O)CC(S(=O)(=O)O)C2=O)c2ccc3ccccc3c21 (stereo not shown) [Compound 18]	–	–	Water solubility ([2]; double salt type (sodium iodide)): 1 mg/0.8 ml
CC1(C)C(=CC=CC=CC=CC2=[N+](CCCCS(=O)(=O)[O-])c3ccc4ccccc4c3C2(C)C)N(CCCC(=O)ON2C(=O)CC(S(=O)(=O)O)C2=O)c2ccc3ccccc3c21 (stereo not shown) [Compound 19, Indocyanine green-N-butanoic acid sulfosuccinimide ester]	–	–	solubility [2]: ≥ 100 µg/mL
CC1(C)C(=CC=CC=CC=CC2=[N+](CCCCS(=O)(=O)[O-])c3ccc4ccccc4c3C2(C)C)N(CCCCCC(=O)ON2C(=O)CC(S(=O)(=O)O)C2=O)c2ccc3ccccc3c21 (stereo not shown) [Compound 21, Indocyanine green-N-hexanoic acid sulfosuccinimide ester]	–	–	solubility [2]: ≥ 100 µg/mL
CC1(C)C(=CC=CC=CC=CC2=[N+](CCCCS(=O)(=O)[O-])c3ccc4ccccc4c3C2(C)C)N(CCCCCC(=O)ON2C(=O)CC(S(=O)(=O)O)C2=O)c2ccc3ccccc3c21 (stereo not shown) [Compound 22]	–	–	Water solubility ([2]; double salt type (sodium perchlorate)): 1 mg/5 ml
